Test [1] concerns C. elegans. As to conditions: feeding of AGE, data not shown. The source says: MGO-derived AGEs have been found in proteins with aging and in age-related diseases (see, e.g., Li et al. (2012) J. Neurol. Sci. 317: 1-5; Cone (2005) Nat. Neurosci. 8: 571-578; Mitchell et al. (2017) Oncotarget, 8: 17453-17474; Li et al. (2012) Neurobiol. Aging 33: 1400-1410). […] To investigate the impact of specific AGEs, we provided synthesized individual AGEs and examined their biological effects. We adapted published procedures to synthesize four AGEs on a gram scale: carboxymethyl-lysine (CML), carboxyethyl-lysine (CEL), fructose-lysine (F-Ly), and methylglyoxal-derived hydroimidazolone MG-H1. CEL and MG-H1 are MGO derived AGEs while CML is glyoxal derived, and F-LY is glucose derived.

Test [2] concerns C57BL/6 mice. The procedure: Percent weight increases indicate the percent change from starting body weights to the weights at the end of the two-week diet. Daily food consumption was measured twice weekly.
Next, we tested if MG-H1, which is detectable in human CSF and serum (Monnier et al. (2005) Ann. N. Y. Acad. Sci. 1043: 567-581), influences feeding in mice. We gave 12 week-old WT mice 100 μM or 200 μM MG-H1 via supplementation of drinking water for two weeks.

For test [3] the following is noted: single compounds; cited from earlier work.
The conditions of test [4]: recent human trial (Bierhaus et al.); cited from earlier work.
Test [5] addresses T1, transient receptor potential cation channel (TRPA1) (Caenorhabditis elegans, UniProt Q18297).
T1 sequence (Q18297 1-1211): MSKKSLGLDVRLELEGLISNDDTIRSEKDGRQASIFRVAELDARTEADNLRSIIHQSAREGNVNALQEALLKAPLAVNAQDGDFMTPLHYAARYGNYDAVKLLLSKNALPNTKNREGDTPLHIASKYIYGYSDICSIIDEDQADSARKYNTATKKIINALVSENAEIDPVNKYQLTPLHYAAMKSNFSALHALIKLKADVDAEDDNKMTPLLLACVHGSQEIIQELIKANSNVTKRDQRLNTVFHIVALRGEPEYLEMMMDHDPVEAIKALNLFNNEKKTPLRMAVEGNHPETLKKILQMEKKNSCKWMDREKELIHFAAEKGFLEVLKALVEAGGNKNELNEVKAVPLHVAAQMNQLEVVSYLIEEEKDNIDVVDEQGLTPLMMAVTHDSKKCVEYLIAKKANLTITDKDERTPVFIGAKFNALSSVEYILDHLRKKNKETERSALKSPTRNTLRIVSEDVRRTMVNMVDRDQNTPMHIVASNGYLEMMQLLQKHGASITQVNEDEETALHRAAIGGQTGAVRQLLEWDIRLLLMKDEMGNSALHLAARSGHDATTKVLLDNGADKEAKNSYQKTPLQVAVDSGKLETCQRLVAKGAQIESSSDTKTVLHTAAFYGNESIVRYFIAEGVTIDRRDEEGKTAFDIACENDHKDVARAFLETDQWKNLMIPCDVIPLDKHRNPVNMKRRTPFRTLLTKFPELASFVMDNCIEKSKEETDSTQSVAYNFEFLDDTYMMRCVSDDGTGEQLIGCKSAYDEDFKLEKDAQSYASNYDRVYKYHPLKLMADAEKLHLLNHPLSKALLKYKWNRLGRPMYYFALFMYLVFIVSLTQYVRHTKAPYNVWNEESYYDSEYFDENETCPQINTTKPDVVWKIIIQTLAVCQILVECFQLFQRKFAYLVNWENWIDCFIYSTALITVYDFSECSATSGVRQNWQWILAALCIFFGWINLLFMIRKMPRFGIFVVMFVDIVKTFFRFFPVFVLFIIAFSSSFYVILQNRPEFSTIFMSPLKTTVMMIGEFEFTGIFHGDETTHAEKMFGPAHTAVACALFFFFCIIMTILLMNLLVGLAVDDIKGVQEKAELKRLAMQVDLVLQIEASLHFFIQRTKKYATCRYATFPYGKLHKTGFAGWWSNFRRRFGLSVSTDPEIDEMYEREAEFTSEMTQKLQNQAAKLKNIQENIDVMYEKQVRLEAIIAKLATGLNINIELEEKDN
Put plainly: ALA mechanism: TRPA1 activation and glyoxalase expression. Set-up: species or system C. elegans. The source says:
FIG. 4 illustrates a proposed model for how MGO is sensed by TRPA1 to activate SKN-1/Nrf2 and mediate detoxification of MGO through downstream glyoxalases in worms and mammals. MGO is sensed by TRPA-1 leading to the activation of SKN-1/Nrf2 pathway. This in turn activates downstream glyoxalases GLO1 and DJ1 (Id.).
(§1) We used C. elegans to screen for compounds that mitigate the detrimental phenotypes in the worm glod-4 mutant. […] This included alpha-lipoic acid (ALA), a drug already prescribed for diabetic neuropathy in certain countries (see, e.g., Giacco et al. (2014) Diabetes 63: 291-299).

Test [6] concerns C. elegans glod-4 mutant. Put plainly: C. elegans glod-4 mutant screen of natural product library for compounds mitigating MGO toxicity. The test is classed as in vivo. The note with it: C. elegans and mammalian neuronal cells; Tim Tec NPL-640 library.
Excerpt: as §1

Setting [7] is: higher dose (200 μM) in drinking water, two weeks.

Results on three molecules are retold here after US20240180891A1, “SYNERGISTIC MODULATORS OF ALPHA-DICARBONYL DETOXIFICATION AND THEIR USE FOR INDUCING WEIGHT LOSS AND THE TREATMENT OF DIABETIC PATHOLOGIES” (Buck Institute for Research on Aging, priority 2020, published 2024).

The structures appear in SMILES notation.

Turning to `CC1NC(NCCC[C@H](N)C(=O)O)=NC1=O` (some centres unmarked) [MG-H1, hydroimidazolone Nδ-(5-hydro-5-methyl-4-imidazolon-2-yl) ornithine], in test [1], the food intake result is recorded as “enhances food intake” and the triglyceride content entry was “increases triglyceride content”. In addition, in test [2] (data not shown), the hourly food intake result is recorded as “increase in hourly food intake” and the water intake entry is reported as “relatively similar water intake”. In test [2] (higher dose), the energy expenditure result is recorded as “reactive increase” and the oxygen consumption result is recorded as “reactive increase”. Moreover, in test [2] (setting [7]), the body weights result is “significant increase” and the food intake entry is “significant increase”.

For the molecule `NC(=O)c1cccnc1` [nicotinamide], the protection against obesity result in test [3] is “protect against obesity”.

For the molecule `O=C(O)CCCCC1CCSS1` (stereo not drawn) [alpha-lipoic acid, 1,2-dithiolane-3-pentanoic acid], in test [4], the weight result was “effectiveness in reducing weight”. For the same molecule, in test [5], the TRPA1 activation result is “activates”; the “expression of glyoxalases (DJ1 and GLO1)” value is listed as “enhancing the expression”. Besides, in test [6], the “amelioration of deleterious effects of MGO toxicity” value was “ameliorate the deleterious effects of MGO toxicity”. Besides, the protection against obesity entry in test [3] is given as “protect against obesity”.
